Measured values: the supplement of paper PMC11208160

Assay: recombinant UMI read abundance after kanamycin selection (control-corrected) (log10(CPM+1)); higher = more efficient recombination; extreme values may be limits of the assay; sequences stand for … in AGTGCAGAGAAAATCGGCCAGTTTTCTCTGCCTGCAGTCCGCATGCCGTGGGACCCCTTGGGTTCTAACCTGTTGCCTAGATTTATGCAGCGGACTGCCTTTCTCCCAAAGTGATAAACCGG…AGGTTGGTTTCACT; site = the 11-nt donor
Method in brief: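 Sequenced counts of recombinant UMIs were turned into CPM, averaged across replicates and scaled with control-derived factors. The reported figure is log10(CPM+1). Those UMIs, each 12 nt long, tagged donor and donor-binding-loop pairs on a plasmid with a promoterless kanamycin gene, screened as a pool in Escherichia coli with IPTG (0.07 mM) plus kanamycin or without selection.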
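Further: IS621 bridge recombinase in Escherichia coli cells against a fixed T5 target plasmid.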

“ATTGAGCCATGGACCGGTTTTCCCGGTAATCCGTATTTGGT (site ATTGAGCCTAC)” and “ATTGAGCCATGGACCGGTTTTCCCGGTAATCCGTATTTGGT (site ATTGAGGCTAC)” are within 0.2 log units of each other in “recombinant UMI read abundance (log10)” value: 0.00384 for the first, 0.0212 for the second.

Compared with “ATTGAGCCATGGACCGGTTTTCCCGGTAATCCGTATTTGGT (site ATTGAGTCTAC)”, “ATTGAGGCATGGACCGGTTTTCCCGGTAATCCGTATTTGGT (site ATTGAGACTAC)” is lower in “recombinant UMI read abundance (log10)” value: 0.633 for the first, 0.413 for the second.

Compared with “ATTGAGGCATGGACCGGTTTTCCCGGTAATCCGTATTTGGT (site ATTGAGCCTAC)”, “ATTGAGGCATGGACCGGTTTTCCCGGTAATCCGTATTTGGT (site ATTGAGGCTAC)” is higher in “recombinant UMI read abundance (log10)” value: 0.486 for the first, 0.927 for the second.

First: ATTGAGGCATGGACCGGTTTTCCCGGTAATCCGTATTTGGT (site ATTGAGTCTAC)
Second: ATTGCAGCATGGACCGGTTTTCCCGGTAATCCGTATTTGAG (site ATTGCAGCTCT)
The “recombinant UMI read abundance (log10)” value of the first is lower: 0.801 for the first, 1.03 for the second.

First: ATTGCCGCATGGACCGGTTTTCCCGGTAATCCGTATTTGTC (site ATTGCCGCTGA)
Second: ATTGCCTCATGGACCGGTTTTCCCGGTAATCCGTATTTGCT (site ATTGCCTCTAG)
The “recombinant UMI read abundance (log10)” value of the first is lower: 0.656 for the first, 2.03 for the second.

Going from “ATTGCGACATGGACCGGTTTTCCCGGTAATCCGTATTTGGT (site ATTGAGACTAC)” to “ATTGCGACATGGACCGGTTTTCCCGGTAATCCGTATTTGGT (site ATTGCGACTAC)”, the “recombinant UMI read abundance (log10)” value rises from 0.0594 to 0.639.

Going from “ATTGCGACATGGACCGGTTTTCCCGGTAATCCGTATTTGGT (site ATTGGGACTAC)” to “ATTGCGACATGGACCGGTTTTCCCGGTAATCCGTATTTGGT (site ATTGTGACTAC)”, the “recombinant UMI read abundance (log10)” value falls from 0.456 to 0.225.

Compared with “ATTGGGACATGGACCGGTTTTCCCGGTAATCCGTATTTGGT (site ATTGAGACTAC)”, “ATTGGGACATGGACCGGTTTTCCCGGTAATCCGTATTTGGT (site ATTGCGACTAC)” is lower in “recombinant UMI read abundance (log10)” value: 0.413 for the first, 0.021 for the second.

Going from “ATTGGGACATGGACCGGTTTTCCCGGTAATCCGTATTTGGT (site ATTGGGACTAC)” to “ATTGGGACATGGACCGGTTTTCCCGGTAATCCGTATTTGGT (site ATTGTGACTAC)”, the “recombinant UMI read abundance (log10)” value falls from 0.896 to 0.0209.

“ATTGTGCCATGGACCGGTTTTCCCGGTAATCCGTATTTGAC (site ATTGTGCCTGT)” and “ATTGTGCCATGGACCGGTTTTCCCGGTAATCCGTATTTGCA (site ATTGTGCCTTG)” are within 0.2 log units of each other in “recombinant UMI read abundance (log10)” value: 0.819 for the first, 0.682 for the second.

“ATTGTGCCATGGACCGGTTTTCCCGGTAATCCGTATTTGTG (site ATTGTGCCTCA)” and “ATTGTGTCATGGACCGGTTTTCCCGGTAATCCGTATTTGAC (site AATGTGTCTGT)” are within 0.2 log units of each other in “recombinant UMI read abundance (log10)” value: 0.054 for the first, 0 for the second.

First: ATTGTGTCATGGACCGGTTTTCCCGGTAATCCGTATTTGAC (site ACTGTGTCTGT)
Second: ATTGTGTCATGGACCGGTTTTCCCGGTAATCCGTATTTGAC (site AGTGTGTCTGT)
The “recombinant UMI read abundance (log10)” value of the first is higher: 1.41 for the first, 0 for the second.

Compared with “ATTGTGTCATGGACCGGTTTTCCCGGTAATCCGTATTTGAC (site ATTGTGTCTGT)”, “ATTGTTACATGGACCGGTTTTCCCGGTAATCCGTATTTGTG (site ATTGTTACTCA)” is lower in “recombinant UMI read abundance (log10)” value: 1.6 for the first, 0.634 for the second.

Going from “ATTTATACATGGACCGGTTTTCCCGGTAATCCGTATTTGAC (site ATATATACTGT)” to “ATTTATACATGGACCGGTTTTCCCGGTAATCCGTATTTGAC (site ATCTATACTGT)”, the “recombinant UMI read abundance (log10)” value rises from 0.718 to 1.22.

First: ATTTATACATGGACCGGTTTTCCCGGTAATCCGTATTTGAC (site ATGTATACTGT)
Second: ATTTATACATGGACCGGTTTTCCCGGTAATCCGTATTTGAC (site ATTTATACTGT)
The “recombinant UMI read abundance (log10)” value of the first is higher: 1.21 for the first, 0.544 for the second.

First: ATTTCTCCATGGACCGGTTTTCCCGGTAATCCGTATTTGAC (site ATTTCTCCTGT)
Second: CAAAATGCATGGACCGGTTTTCCCGGTAATCCGTATTTGAC (site CAAAATGCTGT)
The “recombinant UMI read abundance (log10)” value of the first is lower: 0 for the first, 2.14 for the second.

Going from “CAAACATCATGGACCGGTTTTCCCGGTAATCCGTATTTGCT (site CAAACATCTAG)” to “CAAACATCATGGACCGGTTTTCCCGGTAATCCGTATTTGCT (site CGATCATCTAG)”, the “recombinant UMI read abundance (log10)” value falls from 1.94 to 0.

First: CAAACGCCATGGACCGGTTTTCCCGGTAATCCGTATTTGTG (site CAAACGCCTCA)
Second: CAAACGCCATGGACCGGTTTTCCCGGTAATCCGTATTTGTG (site CAACCGCCTCA)
The “recombinant UMI read abundance (log10)” value of the first is higher: 0.56 for the first, 0.033 for the second.

“CAAACGCCATGGACCGGTTTTCCCGGTAATCCGTATTTGTG (site CAAGCGCCTCA)” and “CAAACGCCATGGACCGGTTTTCCCGGTAATCCGTATTTGTG (site CAATCGCCTCA)” are within 0.2 log units of each other in “recombinant UMI read abundance (log10)” value: 0.0253 for the first, 0.0256 for the second.

First: CAAATAACATGGACCGGTTTTCCCGGTAATCCGTATTTGCA (site CAAATAACTTG)
Second: CAAATCCCATGGACCGGTTTTCCCGGTAATCCGTATTTGCT (site CAAATCCCTAG)
The “recombinant UMI read abundance (log10)” value of the first is higher: 1.1 for the first, 0 for the second.

“CAAATCCCATGGACCGGTTTTCCCGGTAATCCGTATTTGCT (site CAACTCCCTAG)” and “CAAATCCCATGGACCGGTTTTCCCGGTAATCCGTATTTGCT (site CAAGTCCCTAG)” are within 0.2 log units of each other in “recombinant UMI read abundance (log10)” value: 0.00602 for the first, 0 for the second.

Going from “CAAATCCCATGGACCGGTTTTCCCGGTAATCCGTATTTGCT (site CAATTCCCTAG)” to “CAAATGGCATGGACCGGTTTTCCCGGTAATCCGTATTTGCA (site CAAATGGCTTG)”, the “recombinant UMI read abundance (log10)” value rises from 0 to 2.04.

Going from “CAACAACCATGGACCGGTTTTCCCGGTAATCCGTATTTGTC (site CAACAACCTGA)” to “CAACAGGCATGGACCGGTTTTCCCGGTAATCCGTATTTGTA (site CAACAGGCTTA)”, the “recombinant UMI read abundance (log10)” value rises from 0.474 to 1.18.

Going from “CAACATACATGGACCGGTTTTCCCGGTAATCCGTATTTGTG (site CAACATACTCA)” to “CAACCGCCATGGACCGGTTTTCCCGGTAATCCGTATTTGTG (site CAAACGCCTCA)”, the “recombinant UMI read abundance (log10)” value falls from 1.83 to 0.00379.

“CAACCGCCATGGACCGGTTTTCCCGGTAATCCGTATTTGTG (site CAACCGCCTCA)” and “CAACCGCCATGGACCGGTTTTCCCGGTAATCCGTATTTGTG (site CAAGCGCCTCA)” are within 0.2 log units of each other in “recombinant UMI read abundance (log10)” value: 0.00924 for the first, 0.0348 for the second.

Compared with “CAACCGCCATGGACCGGTTTTCCCGGTAATCCGTATTTGTG (site CAATCGCCTCA)”, “CAACGCACATGGACCGGTTTTCCCGGTAATCCGTATTTGTT (site CAACGCACTAA)” is higher in “recombinant UMI read abundance (log10)” value: 0.0138 for the first, 1.62 for the second.

Going from “CAAGAGCCATGGACCGGTTTTCCCGGTAATCCGTATTTGTG (site CAAGAGCCTCA)” to “CAAGAGCCATGGACCGGTTTTCCCGGTAATCCGTATTTGTG (site CAAGCGCCTCA)”, the “recombinant UMI read abundance (log10)” value falls from 1.28 to 0.0351.

Compared with “CAAGAGCCATGGACCGGTTTTCCCGGTAATCCGTATTTGTG (site CAAGGGCCTCA)”, “CAAGAGCCATGGACCGGTTTTCCCGGTAATCCGTATTTGTG (site CAAGTGCCTCA)” is lower in “recombinant UMI read abundance (log10)” value: 0.55 for the first, 0.0217 for the second.

Going from “CAAGCAACATGGACCGGTTTTCCCGGTAATCCGTATTTGCT (site CAAGCAACTAG)” to “CAAGCAACATGGACCGGTTTTCCCGGTAATCCGTATTTGCT (site CAAGCACCTAG)”, the “recombinant UMI read abundance (log10)” value falls from 1.57 to 0.

First: CAAGCAACATGGACCGGTTTTCCCGGTAATCCGTATTTGCT (site CAAGCAGCTAG)
Second: CAAGCAACATGGACCGGTTTTCCCGGTAATCCGTATTTGCT (site CAAGCATCTAG)
The “recombinant UMI read abundance (log10)” value of the first is lower: 0 for the first, 0.289 for the second.

First: CAAGCCACATGGACCGGTTTTCCCGGTAATCCGTATTTGGG (site CAAGACACTCC)
Second: CAAGCCACATGGACCGGTTTTCCCGGTAATCCGTATTTGGG (site CAAGCCACTCC)
The “recombinant UMI read abundance (log10)” value of the first is lower: 0.0254 for the first, 0.408 for the second.

“CAAGCCACATGGACCGGTTTTCCCGGTAATCCGTATTTGGG (site CAAGGCACTCC)” and “CAAGCCACATGGACCGGTTTTCCCGGTAATCCGTATTTGGG (site CAAGTCACTCC)” are within 0.2 log units of each other in “recombinant UMI read abundance (log10)” value: 0.00628 for the first, 0.0106 for the second.

“CAAGCCCCATGGACCGGTTTTCCCGGTAATCCGTATTTGCT (site CAAGCCCCTAG)” and “CAAGCCGCATGGACCGGTTTTCCCGGTAATCCGTATTTGCT (site CAAGCAGCTAG)” are the same in “recombinant UMI read abundance (log10)” value: 2.06 for the first, 2.06 for the second.

Compared with “CAAGCCGCATGGACCGGTTTTCCCGGTAATCCGTATTTGCT (site CAAGCCGCTAG)”, “CAAGCCGCATGGACCGGTTTTCCCGGTAATCCGTATTTGCT (site CAAGCGGCTAG)” is lower in “recombinant UMI read abundance (log10)” value: 2.56 for the first, 0.00324 for the second.

“CAAGCCGCATGGACCGGTTTTCCCGGTAATCCGTATTTGCT (site CAAGCTGCTAG)” and “CAAGCGCCATGGACCGGTTTTCCCGGTAATCCGTATTTGGG (site CAAGCGCCTCA)” are within 0.2 log units of each other in “recombinant UMI read abundance (log10)” value: 0 for the first, 0.0177 for the second.

“CAAGCGCCATGGACCGGTTTTCCCGGTAATCCGTATTTGGG (site CAAGCGCCTCC)” and “CAAGCGCCATGGACCGGTTTTCCCGGTAATCCGTATTTGGG (site CAAGCGCCTCG)” are within 0.2 log units of each other in “recombinant UMI read abundance (log10)” value: 0.0155 for the first, 0.0252 for the second.

“CAAGCGCCATGGACCGGTTTTCCCGGTAATCCGTATTTGGG (site CAAGCGCCTCT)” and “CAAGCGCCATGGACCGGTTTTCCCGGTAATCCGTATTTGTG (site AAAGCGCCTCA)” are within 0.2 log units of each other in “recombinant UMI read abundance (log10)” value: 0.0195 for the first, 0.0176 for the second.

For “CAAGCGCCATGGACCGGTTTTCCCGGTAATCCGTATTTGTG (site CAAACGCCTCA)”, the “recombinant UMI read abundance (log10)” value was 0.0285.
